This is an account of results in patent US8338465B2, “Cyclic carboxylic acid rhodanine derivatives for the treatment and prevention of tuberculosis” (priority 2006, dated 2012).

This assay concerns the target T1, dihydrolipoamide acyltransferase (DlaT) (Mycobacterium tuberculosis, UniProt P9WIS7).
T1 sequence (P9WIS7 1-553): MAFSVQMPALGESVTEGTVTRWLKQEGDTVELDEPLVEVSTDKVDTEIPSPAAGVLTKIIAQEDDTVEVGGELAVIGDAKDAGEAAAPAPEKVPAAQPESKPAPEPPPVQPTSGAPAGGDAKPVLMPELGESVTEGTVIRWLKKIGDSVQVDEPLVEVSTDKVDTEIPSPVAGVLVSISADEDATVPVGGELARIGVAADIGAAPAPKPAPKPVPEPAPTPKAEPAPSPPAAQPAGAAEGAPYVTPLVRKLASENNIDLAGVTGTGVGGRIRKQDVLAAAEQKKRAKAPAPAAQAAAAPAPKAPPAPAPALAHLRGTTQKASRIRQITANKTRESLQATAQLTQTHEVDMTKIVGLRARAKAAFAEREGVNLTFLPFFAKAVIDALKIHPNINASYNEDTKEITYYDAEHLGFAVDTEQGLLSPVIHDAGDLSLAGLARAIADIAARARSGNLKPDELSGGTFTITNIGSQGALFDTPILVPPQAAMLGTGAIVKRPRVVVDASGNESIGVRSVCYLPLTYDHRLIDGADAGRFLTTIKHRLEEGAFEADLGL
The assay is described as follows: DlaT inhibition (Dlat IC50); DTNB peroxidase assay with Lpd, DlaT and AhpD. Particulars: Dlat IC50 category. Format: biochemical.
By IC50 is commonly meant the midpoint of a concentration-inhibition curve. Lower therefore signals higher potency. Take `Cc1ccc(-c2cccc(C=C3SC(=S)N(C4CCC(C(=O)O)CC4)C3=O)c2)cc1` (stereo not shown) [Compound C69, 4-{5-[1-(4′-methyl-biphenyl-3-yl)-methylidene]-4-oxo-2-thioxo-thiazolidin-3-yl}-cyclohexanecarboxylic acid]: the IC50 was less than 10 µM.

`O=C(O)C1CCCC(N2C(=O)C(=Cc3ccc(-c4ccccc4-c4ccccc4)o3)SC2=S)C1` (stereo not shown) [Compound C70, 3-{5-[1-(5-biphenyl-2-yl-furan-2-yl)-methylidene]-4-oxo-2-thioxo-thiazolidin-3-yl}-cyclohexanecarboxylic acid] had an IC50 of less than 10 µM.

The molecule `O=C(O)C1CCC(N2C(=O)C(=Cc3ccc(-c4ccccc4-c4ccccc4)o3)SC2=S)CC1` (stereo not shown) [Compound C71, 4-{5-[1-(5-biphenyl-2-yl-furan-2-yl)-methylidene]-4-oxo-2-thioxo-thiazolidin-3-yl}-cyclohexanecarboxylic acid] displayed an IC50 of less than 10 µM.

Turning to `Cc1ccc(-c2ccc(C=C3SC(=S)N(C4CCCC(C(=O)O)C4)C3=O)cc2)cc1` (stereo not shown) [Compound C72, 3-{5-[1-(4′-methyl-biphenyl-4-yl)-methylidene]-4-oxo-2-thioxo-thiazolidin-3-yl}-cyclohexanecarboxylic acid], the IC50 was less than 10 µM.

In turn, `Cc1ccc(-c2ccc(C=C3SC(=S)N(C4CCC(C(=O)O)CC4)C3=O)cc2)cc1` (stereo not shown) [Compound C73, 4-{5-[1-(4′-methyl-biphenyl-4-yl)-methylidene]-4-oxo-2-thioxo-thiazolidin-3-yl}-cyclohexanecarboxylic acid] showed an IC50 of less than 10 µM.

With `COc1ccc(C)cc1-c1ccc(C=C2SC(=S)N(C3CCCC(C(=O)O)C3)C2=O)o1` (stereo not shown) [Compound C74, 3-{5-[5-(2-Methoxy-5-methyl-phenyl)-furan-2-ylmethylene]-4-oxo-2-thioxo-thiazolidin-3-yl}-cyclohexanecarboxylic acid], the IC50 was in the range of 11 to 40 µM.

Take `COc1ccc(C)cc1-c1ccc(C=C2SC(=S)N(C3CCC(C(=O)O)CC3)C2=O)o1` (stereo not shown) [Compound C75, 4-{5-[5-(2-Methoxy-5-methyl-phenyl)-furan-2-ylmethylene]-4-oxo-2-thioxo-thiazolidin-3-yl}-cyclohexanecarboxylic acid]: the IC50 is 11 to 40 µM.

Regarding `CC(=O)Nc1ccc(-c2ccc(C=C3SC(=S)N(C4CCC(C(=O)O)CC4)C3=O)o2)cc1` (stereo not shown) [Compound C76, 4-{5-[1-[5-(4-acetylamino-phenyl)-furan-2-yl]-methylidene]-4-oxo-2-thioxo-thiazolidin-3-yl}-cyclohexanecarboxylic acid], the IC50 is less than 10 µM.

The molecule `CCCCc1ccc(-c2ccc(C=C3SC(=S)N(C4CCCC(C(=O)O)C4)C3=O)o2)cc1` (stereo not shown) [Compound C77, 3-{5-[1-[5-(4-butyl-phenyl)-furan-2-yl]-methylidene]-4-oxo-2-thioxo-thiazolidin-3-yl}-cyclohexanecarboxylic acid] showed an IC50 of less than 10 µM.

Molecule `CCCCc1ccc(-c2ccc(C=C3SC(=S)N(C4CCC(C(=O)O)CC4)C3=O)o2)cc1` (stereo not shown) [Compound C78, 4-{5-[1-[5-(4-butyl-phenyl)-furan-2-yl]-methylidene]-4-oxo-2-thioxo-thiazolidin-3-yl}-cyclohexanecarboxylic acid] had a half-maximal inhibitory concentration (IC50) of less than 10 µM.

`CCCc1ccc(-c2ccc(C=C3SC(=S)N(C4CCCC(C(=O)O)C4)C3=O)o2)cc1` (stereo not shown) [Compound C79, 3-{5-[1-[5-(4-propyl-phenyl)-furan-2-yl]-methylidene]-4-oxo-2-thioxo-thiazolidin-3-yl}-cyclohexanecarboxylic acid] returned an IC50 of 11 to 40 µM.

Molecule `CCCc1ccc(-c2ccc(C=C3SC(=S)N(C4CCC(C(=O)O)CC4)C3=O)o2)cc1` (stereo not shown) [Compound C80, 4-{5-[1-[5-(4-propyl-phenyl)-furan-2-yl]-methylidene]-4-oxo-2-thioxo-thiazolidin-3-yl}-cyclohexanecarboxylic acid] came in with an IC50 of 11 to 40 µM.

In the case of `CNS(=O)(=O)c1ccc(-c2ccc(C=C3SC(=S)N(C4CCCC(C(=O)O)C4)C3=O)o2)cc1` (stereo not shown) [Compound C83, 3-{5-[5-(4-Methylsulfamoyl-phenyl)-furan-2-ylmethylene]-4-oxo-2-thioxo-thiazolidin-3-yl}-cyclohexanecarboxylic acid], the IC50 was in the range of 11 to 40 µM.
